Assay results taken from patent publication US20240261274A1, “TREATMENT OF MYC-DRIVEN CANCERS WITH GSPT1 DEGRADERS” (MONTE ROSA THERAPEUTICS, INC., priority 2021, published 2024).
Where two headings read alike, the source gives them in different places.

How the values were obtained:
[1] = target: T1, Full length wild-type cereblon CRBN (Homo sapiens, UniProt Q96SW2); experiment: Fluorescence polarization (FP) assay indicating cereblon binding
T1 construct: Full length wild-type cereblon CRBN (80.0 nM, 10 μL) was incubated in assay buffer
Method: Compound activity was monitored in a fluorescence polarization (FP) homogeneous assay using 1-[5-({2-[2-(2-{[2-(2,6-dioxopiperidin-3-yl)-1,3-dioxo-2,3-dihydro-1H-isoindol-4-yl]oxy}acetamido)ethoxy]ethyl}carbamoyl)pentyl]-3,3-dimethyl-2-[(1E,3E)-5-[(2E)-1,3,3-trimethyl-5-sulfo-2,3-dihydro-1H-indol-2-ylidene]penta-1,3-dien-1-yl]-3H-indol-1-ium-5-sulfonate as a fluorescent probe. Unless otherwise stated, all reagents were purchased from Sigma Aldrich. Enzymatic reactions were conducted in Perkin-Elmer Black 384 well ProxiPlate Plus (catalogue no. 6008269) in 10 μL total volume. Full length wild-type cereblon CRBN (80.0 nM, 10 μL) was incubated in assay buffer containing 20 mM HEPES (pH 8.0), […], 0.5 mM TCEP and 0.05% Tween 20 in the presence or absence of compound (300 nL). Inhibitors were stored as 10 mM DMSO stocks in an inert environment (low humidity, dark, low oxygen, room temperature) using the Storage Pod System. Compounds and DMSO were dispensed using the Echo E5XX (Labcyte Inc. USA) to give concentrations from 300 to 0.937 or 3000 to 9.3 nM in a 12 data point curve. […] Following incubation at room temperature for 30 min, the assay was initiated by dispensing the probe to a final concentration of 5 nM (2.5 nL of a 20 μM stock) using the Echo E5XX. FP was measured after a period of 12 hours using a Pherastar plate reader (BMG Labtech, Germany) exciting at 590 nm and measuring the amount of parallel and perpendicular light at 675 nm. The FP signal was subsequently normalized to the no-compound control (i.e., DMSO). Analysis and IC50 values were derived using Dotmatics (Dotmatics UK) software.

GSPT1 = GSPT1 (Homo sapiens, UniProt P15170+Q96SW2); experiment: GSPT1 degradation immunofluorescence assay in CAL-51 cells; type: cell-based; set-up: endogenous in cells; host or cells: CAL-51 (DSMZ ACC302); details: 6 hours
Method: CAL-51 cells were purchased from DSMZ (cat. Number ACC302), sub-cultured in 90% Dulbecco's MEM (4.5 g/L glucose, Gibco 11965)+10% heat inactivated FBS (BioConcept, 2-01F1361) and incubated at 37° C., 5% CO2. For the assay, imaging microtiterplate Cell Carrier 96 Ultra (Perkin Elmer 6055302) were pre-coated with Fibronectin (Sigma F085, 30 μl at 0.2 μg/ml) in PBS (100 μl, Gibco 14190) for 45 min at room temperature, rinsed with PBS and CAL-51 cells (30K cells/well) were plated and let to adhere overnight. Cells were treated with compounds typically using a serial dilution ranging from 30 μM to 0.1 nM for 6 hours. Compounds were stored at 10 mM DMSO stocks. Vehicle (DMSO), positive (CC-885, 10 μM) and rescue controls (positive control plus 0.2 μM bortezomib) were also included at this stage. Cells were subsequently rinsed with PBS and fixed in 10% Formalin solution (50 μl, Sigma HT5011)) for 20 mins at room temperature. Following three consecutive PBS washes (100 μl), cells were permeabilized in 0.1% Triton X-100 in PBS (Sigma 93443, 50 μl) for 15 mins at room temperature. Following three further PBS washes, 50 μl blocking buffer (1% BSA, Sigma A4503, in PBS) was added for 45 min for signal-to-noise reduction. Primary antibody (human GSPT1, Sigma HPA052488) was diluted in blocking buffer (dil. 1/300, 35 μl/well) and incubated with the cells overnight at 4° C. After three PBS washes, Alexa-fluor 488 coupled secondary antibodies (Invitrogen, A32731, dil. 1/1000), Alexa-fluor 647-Phalloidin (Invitrogen, A22287, dil. 1/200) and DAPI (Thermo, #62248, dil. 1/1000) were diluted in blocking buffer and incubated with the samples for 2 hours at room temperature. After three final PBS washes, samples were conserved in 100 μl PBS in the dark, until measurement. Image acquisition was performed on the Operetta High-Content Imager (Perkin-Elmer). Fluorescence intensity of Alexa-Fluor 488 (GSPT1), Alexa-Fluor 647 (Actin) and DAPI (Nucleus) were measured. For the determination of GSPT1 DC50 values, a custom algorithm implemented in the PerkinElmer image analysis software Harmony-Acapella® was developed. After user-defined setting of adjustment parameters, the analysis was run identically without human intervention for all image fields. DAPI staining of the nuclei was used to determine the location of cells using standard nuclei detection modules. Segmentation artifacts were removed by threshold-based filters for area, roundness and intensity. The outline of the cells was determined analogously from the sum of the normalized, smoothed DAPI and Actin channel, starting from each nucleus. The Alexa-Fluor 488 (GSPT1) signal intensity in each cell was finally measured, in order to obtain a Mean intensity per cell. GSPT1 degradation (DC50) was calculated after normalization to controls and data import in CDD vault Database, using non-linear regression.

[2] = Table 5B, read-out: Activity for GSPT1 degradation, Code (DC50)
[3] = bound stated, read-out: IC50 value
[4] = Table 4, read-out: Activity for GSPT1 degradation, Code (DC50)
[5] = bounds stated, read-out: IC50 value

T1 sequence (Q96SW2 whole entry): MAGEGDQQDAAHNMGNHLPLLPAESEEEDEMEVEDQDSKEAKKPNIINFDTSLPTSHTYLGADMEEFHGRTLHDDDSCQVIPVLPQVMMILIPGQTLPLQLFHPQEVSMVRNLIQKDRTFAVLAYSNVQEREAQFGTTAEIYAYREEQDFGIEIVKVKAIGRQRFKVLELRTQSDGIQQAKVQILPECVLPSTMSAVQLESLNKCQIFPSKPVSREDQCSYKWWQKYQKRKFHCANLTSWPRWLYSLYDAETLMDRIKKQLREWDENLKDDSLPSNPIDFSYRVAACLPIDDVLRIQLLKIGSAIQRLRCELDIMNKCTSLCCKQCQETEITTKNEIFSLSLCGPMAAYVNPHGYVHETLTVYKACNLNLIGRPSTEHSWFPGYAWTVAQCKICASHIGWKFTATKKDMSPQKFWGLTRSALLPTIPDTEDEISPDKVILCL
Sequence of GSPT1 (P15170 whole entry): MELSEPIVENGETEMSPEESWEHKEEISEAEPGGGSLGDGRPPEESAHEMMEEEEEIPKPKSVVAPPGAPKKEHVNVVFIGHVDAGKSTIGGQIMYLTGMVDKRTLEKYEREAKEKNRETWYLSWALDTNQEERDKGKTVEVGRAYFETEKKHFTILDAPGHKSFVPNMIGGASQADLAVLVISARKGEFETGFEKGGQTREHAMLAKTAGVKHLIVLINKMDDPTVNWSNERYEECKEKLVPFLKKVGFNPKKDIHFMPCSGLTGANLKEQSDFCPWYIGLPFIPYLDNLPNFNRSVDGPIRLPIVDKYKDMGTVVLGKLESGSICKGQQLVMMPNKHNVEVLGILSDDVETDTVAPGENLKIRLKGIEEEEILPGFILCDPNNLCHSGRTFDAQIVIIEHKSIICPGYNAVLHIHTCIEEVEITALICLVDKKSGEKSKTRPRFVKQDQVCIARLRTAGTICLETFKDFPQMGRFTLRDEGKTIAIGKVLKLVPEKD
Sequence of GSPT1 (Q96SW2 whole entry): as the sequence (Q96SW2 whole entry) above
Sequence of GSPT1 (Q16531 whole entry partner): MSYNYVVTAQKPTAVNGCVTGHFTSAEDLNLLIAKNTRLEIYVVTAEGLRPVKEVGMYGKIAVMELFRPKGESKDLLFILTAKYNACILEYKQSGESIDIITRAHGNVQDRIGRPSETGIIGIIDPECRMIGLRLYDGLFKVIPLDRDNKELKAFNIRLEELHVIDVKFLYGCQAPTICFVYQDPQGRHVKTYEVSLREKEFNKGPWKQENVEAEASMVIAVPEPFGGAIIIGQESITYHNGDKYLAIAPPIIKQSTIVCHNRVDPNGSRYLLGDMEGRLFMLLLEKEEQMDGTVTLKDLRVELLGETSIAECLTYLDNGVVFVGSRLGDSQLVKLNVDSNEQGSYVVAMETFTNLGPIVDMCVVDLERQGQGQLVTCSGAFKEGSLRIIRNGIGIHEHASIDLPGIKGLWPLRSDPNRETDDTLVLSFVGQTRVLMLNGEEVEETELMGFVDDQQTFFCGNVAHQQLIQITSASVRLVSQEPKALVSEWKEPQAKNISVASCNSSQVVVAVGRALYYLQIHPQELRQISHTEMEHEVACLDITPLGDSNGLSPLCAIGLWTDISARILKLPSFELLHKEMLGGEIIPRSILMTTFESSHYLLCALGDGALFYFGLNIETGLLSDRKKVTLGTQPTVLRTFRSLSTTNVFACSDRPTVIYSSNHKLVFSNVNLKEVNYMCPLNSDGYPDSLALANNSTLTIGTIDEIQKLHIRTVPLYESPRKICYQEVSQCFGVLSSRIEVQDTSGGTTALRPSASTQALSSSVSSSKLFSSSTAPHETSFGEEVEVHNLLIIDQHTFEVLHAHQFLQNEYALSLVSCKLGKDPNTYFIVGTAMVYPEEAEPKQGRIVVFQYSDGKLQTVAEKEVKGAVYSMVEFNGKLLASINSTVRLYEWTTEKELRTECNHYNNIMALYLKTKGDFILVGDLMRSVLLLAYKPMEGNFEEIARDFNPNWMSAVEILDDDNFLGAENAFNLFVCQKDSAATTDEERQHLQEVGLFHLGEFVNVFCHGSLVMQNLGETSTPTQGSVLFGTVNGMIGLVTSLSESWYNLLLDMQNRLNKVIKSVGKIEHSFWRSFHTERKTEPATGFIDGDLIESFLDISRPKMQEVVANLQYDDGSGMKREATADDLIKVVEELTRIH

SMILES	IC50 ([1]; Table 3B, read-out: rFP IC50) [µM]	DC50 (GSPT1; [2]) [µM]	further results
C[C@@H]1CCCN1c1ccc(NC(=O)OCc2cc(F)c3c(c2)C(=O)N(C2CCC(=O)NC2=O)C3)cn1 (stereo partly shown) [Compound 523]	0.6 to 1.2	≤ 0.03	
O=C1CCC(N2Cc3c(F)cc(COC(=O)Nc4cc(F)c(-c5ccccc5)c(F)c4)cc3C2=O)C(=O)N1 (stereo not shown) [Compound 530]	> 1.9	0.03 to 0.3	
O=C1CCC(N2Cc3c(F)cc(COC(=O)Nc4ccc(F)c(OC(F)(F)F)c4)cc3C2=O)C(=O)N1 (stereo not shown) [Compound 514]	> 1.9	0.03 to 0.3	
COc1cc(COC(=O)Nc2cc(F)cc(OC(F)F)c2)cc2c1CN(C1CCC(=O)NC1=O)C2=O (stereo not shown) [Compound 547]	0.6 to 1.2	≤ 0.03	
CN(C)CC(=O)Oc1cccc(CNC(=O)NCc2ccc3c(c2)C(=O)N(C2CCC(=O)NC2=O)C3)c1 (stereo not shown) [Compound 136]			IC50 [1, 3]: < 1.1 µM; DC50 (GSPT1; [4]): > 0.3 µM
Cc1c(Cl)cc(NC(=O)NCc2ccc3c(c2)C(=O)N(C2CCC(=O)NC2=O)C3)cc1CN1CC2CC1CO2 (stereo not shown) [Compound 139]			IC50 [1, 3]: < 1.1 µM; DC50 (GSPT1; [4]): ≤ 0.1 µM
COc1cc(COC(=O)Nc2cc(OC(F)(F)F)ccc2F)cc2c1CN(C1CCC(=O)NC1=O)C2=O (stereo not shown) [Compound 566]		> 0.3	
CC(C)(C)c1ccc(NC(=O)OCc2cc(F)c3c(c2)C(=O)N(C2CCC(=O)NC2=O)C3)cc1 (stereo not shown) [Compound 510]	> 1.9	0.03 to 0.3	
COc1cc(COC(=O)Nc2ccc(F)c(OC(F)(F)F)c2)cc2c1CN(C1CCC(=O)NC1=O)C2=O (stereo not shown) [Compound 539]	1.2 to 1.9	≤ 0.03	
O=C1CCC(N2Cc3ccc(CNC(=O)Nc4ccc(Cl)cc4Cl)cc3C2=O)C(=O)N1 (stereo not shown) [Compound 45]			IC50 [1, 5]: < 0.6 µM
O=C1CCC(N2Cc3ccc(CNC(=O)NCC4CCCCC4)cc3C2=O)C(=O)N1 (stereo not shown) [Compound 58]			IC50 [1, 5]: < 0.6 µM
O=C1CCC(N2Cc3c(F)cc(COC(=O)Nc4ccc(-c5ccccn5)cc4)cc3C2=O)C(=O)N1 (stereo not shown) [Compound 511]	≤ 0.6		
CCc1ccccc1NC(=O)NCc1ccc2c(c1)C(=O)N(C1CCC(=O)NC1=O)C2 (stereo not shown) [Compound 36]			IC50 [1, 5]: < 0.6 µM
COc1ccc(C)cc1NC(=O)NCc1ccc2c(c1)C(=O)N(C1CCC(=O)NC1=O)C2 (stereo not shown) [Compound 17]			IC50 [1, 5]: < 0.6 µM
O=C1CCC(N2Cc3ccc(CNC(=O)Nc4cccc(Cl)c4Cl)cc3C2=O)C(=O)N1 (stereo not shown) [Compound 50]			IC50 [1, 5]: < 0.6 µM
Cc1ccc(NC(=O)NCc2ccc3c(c2)C(=O)N(C2CCC(=O)NC2=O)C3)cc1 (stereo not shown) [Compound 21]			IC50 [1, 5]: < 0.6 µM

Continued, in another order:

IC50 ([1]; Table 3B, read-out: rFP IC50) [µM]	DC50 (GSPT1; [2]) [µM]	SMILES	further results
0.6 to 1.2	≤ 0.03	Cc1cc(NC(=O)OCc2cc(F)c3c(c2)C(=O)N(C2CCC(=O)NC2=O)C3)cnc1-c1ccccc1 (stereo not shown) [Compound 520]	
> 1.9	≤ 0.03	O=C1CCC(N2Cc3c(F)cc(COC(=O)Nc4ccc(-c5ccccc5F)c(F)c4)cc3C2=O)C(=O)N1 (stereo not shown) [Compound 529]	
≤ 0.6	≤ 0.03	CC1(C)COc2cc(NC(=O)OCc3cc(F)c4c(c3)C(=O)N(C3CCC(=O)NC3=O)C4)ccc21 (stereo not shown) [Compound 517]	
> 1.9	0.03 to 0.3	O=C1CCC(N2Cc3c(F)cc(COC(=O)Nc4ccc(F)c(Cl)c4)cc3C2=O)C(=O)N1 (stereo not shown) [Compound 532]	
> 1.9		O=C1CCC(N2Cc3c(F)cc(COC(=O)Nc4cc(F)cc(OC(F)F)c4)cc3C2=O)C(=O)N1 (stereo not shown) [Compound 506]	
> 1.9		O=C1CCC(N2Cc3c(F)cc(COC(=O)Nc4cc(-c5ccccc5)ccn4)cc3C2=O)C(=O)N1 (stereo not shown) [Compound 524]	
